Data on 17 compounds can be found in patent publication US7563793B2, “Pyrrolo[1,2-a]quinoxalin-5-(4H)-yl)sulfonyls and carbonyls and their use as estrogenic agents” (Wyeth, priority 2004, dated 2009).

The test system of one series is ER/Nf-kB. The series can be described thus: ER/NF-κB luciferase reporter assay in Ad5-wt-ER infected HAECT-1 cells (IL-1β induced). It is filed as cell-based, human. The settings on record: for IC50: Homo sapiens, HAECT1; for ER/Nf-kB Efficacy: relative to maximal inhibition observed with E2. In short, it runs like this:
(§1)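 Ad5-wt-hERα-infected HAECT-1 cells, with uninfected cells as controls; after infection, cells were washed, incubated overnight in EBM-BSA, then held at 34 °C for 1 h. Luciferase was read by luminometry on cell lysates. IC50/EC50 came from four-parameter logistic fits of mean IL-6, luciferase or CK values versus log10 compound concentration.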

Another series relates to IL-6. The series can be described thus: IL-6 assay (ELISA) in Ad5-wt-ER infected HAECT-1 cells (IL-1β induced). To be noted: Homo sapiens; for IC50: HAECT1; for Emax: HAECT1, relative to maximal inhibition observed with E2, read-out: IL-6 Efficacy. The series is classed as cell-based, human. How it is done: After four hours, cells were washed with EBM-BSA and incubated overnight in the same medium. […] After two hours, cells were washed and incubated at 34° C. for 1 hour. […] Control (no ER infection) cells were processed as above without Ad5-wt-hERα virus infection. […] Cells were subsequently washed with 300 μl of Dulbecco's phosphate buffered saline and lysed in 50 μl of Cell Culture Lysis Reagent (Promega). Luciferase was determined on a Wallac Victor^2 Luminometer (Gaithersburg, Md.) using 10 μl of lysate and mixing with 100 lμof Promega Luciferase Assay reagent. […] For IC50 and EC50 calculations, mean IL-6, luciferase or CK values versus log10 of the compound concentration were fitted to a four parameter logistic equation. The IC50/EC50 value, ‘Hill slope’, upper and lower limits of the curve were iteratively estimated.
In general terms: An ELISA detects its analyte on a solid surface through an enzyme-linked reagent.

A further series relates to creatine kinase. As to the kind of experiment: Creatine kinase assay in Ad5-wt-ER infected HAECT-1 cells. It is filed as cell-based, human. To be noted: Homo sapiens; for EC50: HAECT1, CK stimulation, N/O = activity not observed at concentrations tested, read-out: CK IC50; for Emax: HAECT1, relative to maximal stimulation observed with E2, read-out: CK Efficacy. In short, it runs like this:
as §1

Molecules are shown by their SMILES.

As usually defined, the IC50 is the midpoint of a concentration-inhibition curve. A lower IC50 goes with higher potency. One may read the melting point as the temperature of the solid-liquid transition. Compound `CCC1c2cccn2-c2cc(O)c(F)cc2N1S(=O)(=O)c1ccc(O)c(C)c1` (stereo not shown) [Example 74, 4-ethyl-7-fluoro-5-[(4-hydroxy-3-methylphenyl)sulfonyl]-4,5-dihydropyrrolo[1,2-a]quinoxalin-8-ol] returned a melting point of 194 to 196 °C. Also, in the series on ER/Nf-kB, the IC50 came to 157 nM and the “ER/Nf-kB Efficacy” value was found to be 75%.
As for `C[C@@H]1c2cccn2-c2ccc(F)cc2N1C(=O)c1ccc(O)cc1` [123 (R), 4-{[(4R)-7-fluoro-4-methylpyrrolo[1,2-a]quinoxalin-5(4H)-yl]carbonyl}phenol], the melting point was 125 to 129 °C. Further, in the series with IL-6, the IC50 was found to be 23 nM and the Emax was 112%. Also, in the series with creatine kinase, the EC50 was 198 nM and the Emax was 27%.
`CC[C@@H]1c2cccn2-c2ccc(F)cc2N1C(=O)c1cccc(O)c1` [127 (R), 3-{[(4R)-4-ethyl-7-fluoropyrrolo[1,2-a]quinoxalin-5(4H)-yl]carbonyl}phenol] had a melting point of 115 to 116 °C. In the series with IL-6, the IC50 was determined as 62 nM and the Emax is 132%. Moreover, in the series on creatine kinase, the EC50 worked out at 159 nM and the Emax was 35%.
For the compound `CC[C@H]1c2cccn2-c2ccc(Br)cc2N1S(=O)(=O)c1ccc(O)cc1` [Example 77, 4-{[(4S)-7-bromo-4-ethylpyrrolo[1,2-a]quinoxalin-5(4H)-yl]sulfonyl}phenol], the melting point lay within 187 to 189 °C. Moreover, in the series with ER/Nf-kB, the 50% inhibitory concentration (IC50) was determined as 11 nM and the “ER/Nf-kB Efficacy” value is on record as 186%. Further, in the series on creatine kinase, the EC50 was found to be 212 nM and the Emax was 39%.
Compound `CC[C@H]1c2ccc(C#N)n2-c2cc(F)c(F)cc2N1S(=O)(=O)c1ccc(O)cc1` [101 (S), (4S)-4-ethyl-7,8-difluoro-5-[(4-hydroxyphenyl)sulfonyl]-4,5-dihydropyrrolo[1,2-a]quinoxaline-1-carbonitrile] yielded a melting point of 191 to 192 °C. In the series on IL-6, half-maximal inhibition (IC50) was put at 424 nM and the Emax stood at 131%. Moreover, in the series with creatine kinase, the EC50 is 91 nM and the Emax was determined as 30%.
Take `CCC1c2ccc(C#N)n2-c2ccc(F)cc2N1S(=O)(=O)c1ccc(O)c(C)c1` (stereo not shown) [Example 33, 4-ethyl-7-fluoro-5-[(4-hydroxy-3-methylphenyl)sulfonyl]-4,5-dihydropyrrolo[1,2-a]quinoxaline-1-carbonitrile]: the melting point fell in the range of 192 to 194 °C. Further, in the series with ER/Nf-kB, the IC50 was found to be 1320 nM and the “ER/Nf-kB Efficacy” value is recorded as 208%.
Consider `CCC1c2cccn2-c2ccc(F)cc2N1S(=O)(=O)c1cccc(O)c1` (stereo not shown) [Example 87, 3-[(4-ethyl-7-fluoropyrrolo[1,2-a]quinoxalin-5(4H)-yl)sulfonyl]phenol], for which the melting point lay in the range of 153 to 154 °C. In the series with IL-6, the IC50 came out at 41 nM and the Emax was 112%. In the series with creatine kinase, the EC50 worked out at 205 nM and the Emax came out at 33%.
`CC[C@@H]1c2ccc(C#N)n2-c2ccc(Br)cc2N1S(=O)(=O)c1ccc(O)cc1` [Example 91, (4R)-7-bromo-4-ethyl-5-[(4-hydroxyphenyl)sulfonyl]-4,5-dihydropyrrolo[1,2-a]quinoxaline-1-carbonitrile]: the melting point lay within 182 to 185 °C. For the same compound, in the series with IL-6, half-maximal inhibition (IC50) was put at 1460 nM and the Emax was found to be 86%. The Emax in the series with creatine kinase was -4%.
On to `CCC1c2ccc(C#N)n2-c2cc(F)c(F)cc2N1S(=O)(=O)c1ccc(O)c(C)c1` (stereo not shown) [Example 12, 4-ethyl-7,8-difluoro-5-[(4-hydroxy-3-methylphenyl)sulfonyl]-4,5-dihydropyrrolo[1,2-a]quinoxaline-1-carbonitrile], for which the melting point lay in the range of 201 to 203 °C. In the series on ER/Nf-kB, it took 1820 nM to reach half-maximal inhibition (IC50) and the “ER/Nf-kB Efficacy” value is 91%.
The compound `CCC1c2cccn2-c2ccc(F)cc2N1C(=O)c1ccc(O)cc1` (stereo not shown) [Example 118, 4-[(4-ethyl-7-fluoropyrrolo[1,2-a]quinoxalin-5(4H)-yl)carbonyl]phenol] had a melting point of 165 to 167 °C. For the same compound, in the series on IL-6, the IC50 stood at 3 nM and the Emax is 95%. Also, in the series on creatine kinase, the EC50 was 20 nM and the Emax came out at 32%.
With `CC[C@H]1c2ccc(C#N)n2-c2cc(F)c(F)cc2N1S(=O)(=O)c1ccc(OS(N)(=O)=O)c(C)c1` [Example 103, 4-{[(4S)-1-cyano-4-ethyl-7,8-difluoropyrrolo[1,2-a]quinoxalin-5(4H)-yl]sulfonyl}-2-methylphenyl sulfamate], the melting point is 204 to 207 °C. Also, in the series on IL-6, the IC50 is 101 nM and the Emax was determined as 93%. In addition, in the series on creatine kinase, the EC50 turned out to be 34 nM and the Emax was -18%.
As to `CC[C@H]1c2cccn2-c2c(cc(F)c(F)c2F)N1S(=O)(=O)c1ccc(O)cc1` [97 (S), 4-{[(4S)-4-ethyl-7,8,9-trifluoropyrrolo[1,2-a]quinoxalin-5(4H)-yl]sulfonyl}phenol], the melting point fell in the range of 155 to 156 °C. Besides, in the series with IL-6, the IC50 was found to be 9 nM and the Emax is 134%. Besides, in the series on creatine kinase, the EC50 was found to be 31 nM and the Emax is 37%.
On to `CC[C@H]1c2ccc(C#N)n2-c2ccc(Br)cc2N1S(=O)(=O)c1ccc(O)cc1` [Example 89, (4S)-7-bromo-4-ethyl-5-[(4-hydroxyphenyl)sulfonyl]-4,5-dihydropyrrolo[1,2-a]quinoxaline-1-carbonitrile], for which the melting point was in the range of 189 to 191 °C. In the series with IL-6, the IC50 is 150 nM and the Emax was determined as 188%. In the series on creatine kinase, the EC50 is 9.9 nM and the Emax was determined as 7%.
The compound `CCC1c2cccn2-c2c(cc(F)c(F)c2F)N1S(=O)(=O)c1cccc(O)c1` (stereo not shown) [Example 100, 3-[(4-ethyl-7,8,9-trifluoropyrrolo[1,2-a]quinoxalin-5(4H)-yl)sulfonyl]phenol] came in with a melting point of 143 to 145 °C. In the series with IL-6, the midpoint of inhibition, the IC50, lay at 14 nM and the Emax stood at 193%. Further, in the series with creatine kinase, the EC50 turned out to be 99 nM and the Emax came out at 42%.
Compound `CC[C@H]1c2ccc(C#N)n2-c2cc(F)c(F)cc2N1S(=O)(=O)c1ccc(O)c(C)c1` [Example 11B, (S)-4-ethyl-7,8-difluoro-5-[(4-hydroxy-3-methylphenyl)sulfonyl]-4,5-dihydropyrrolo[1,2-a]quinoxaline-1-carbonitrile] came in with a melting point of 208 to 210 °C. Moreover, in the series on ER/Nf-kB, the IC50 amounted to 332 nM and the “ER/Nf-kB Efficacy” value is 96%. In addition, in the series with creatine kinase, the EC50 came to 830 nM and the Emax is 96%.
`CC[C@@H]1c2cccn2-c2cc(F)c(F)cc2N1S(=O)(=O)c1ccc(O)c(C)c1` [102 (R), 4-{[(4R)-4-ethyl-7,8-difluoropyrrolo[1,2-a]quinoxalin-5(4H)-yl]sulfonyl}-2-methylphenol] displayed a melting point of 160 to 162 °C. In addition, in the series on IL-6, the IC50 was found to be 448 nM and the Emax turned out to be 117%. For the same compound, in the series with creatine kinase, the EC50 was 1770 nM and the Emax was 31%.
`CCC1c2cccn2-c2ccc(Br)cc2N1S(=O)(=O)c1cccc(O)c1` (stereo not shown) [Example 82, 3-[(7-bromo-4-ethylpyrrolo[1,2-a]quinoxalin-5(4H)-yl)sulfonyl]phenol] gave a melting point of 176 to 178 °C. In addition, in the series with IL-6, the IC50 amounted to 51 nM and the Emax amounted to 114%.
